Experimental data: publication PMC11677535, “Eremophilane- and Acorane-Type Sesquiterpenes from the Deep-Sea Cold-Seep-Derived Fungus Furcasterigmium furcatum CS-280 Cultured in the Presence of Autoclaved Pseudomonas aeruginosa QDIO-4” (Marine Drugs, 2024)

Target: T1, COX-2 (cyclooxygenase-2) (Homo sapiens, UniProt P35354)
T1 construct: gene PTGS2
T1 sequence (P35354 18-604): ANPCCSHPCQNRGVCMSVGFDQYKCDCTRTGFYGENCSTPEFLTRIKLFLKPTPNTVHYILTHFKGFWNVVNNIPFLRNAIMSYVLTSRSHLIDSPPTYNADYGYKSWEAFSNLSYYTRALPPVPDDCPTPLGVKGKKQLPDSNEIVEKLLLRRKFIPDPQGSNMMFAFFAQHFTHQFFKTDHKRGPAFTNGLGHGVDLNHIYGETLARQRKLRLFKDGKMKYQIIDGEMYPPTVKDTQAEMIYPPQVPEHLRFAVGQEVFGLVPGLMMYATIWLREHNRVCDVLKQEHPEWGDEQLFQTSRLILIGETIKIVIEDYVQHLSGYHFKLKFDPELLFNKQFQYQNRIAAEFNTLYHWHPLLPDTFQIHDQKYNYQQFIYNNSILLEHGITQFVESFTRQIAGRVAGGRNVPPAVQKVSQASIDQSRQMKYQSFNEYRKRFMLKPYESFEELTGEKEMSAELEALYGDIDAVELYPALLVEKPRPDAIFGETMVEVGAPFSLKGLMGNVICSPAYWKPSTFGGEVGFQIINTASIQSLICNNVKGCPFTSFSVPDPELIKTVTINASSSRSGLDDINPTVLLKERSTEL
Assay: biochemical

SMILES	IC50 [µM]
CC(=O)O[C@H]1C=C2C[C@@]3(O)OC[C@@]4(C)O[C@]43C[C@]2(C)[C@@H](C)[C@H]1O [compound 3, fureremophilane C]	93.4
CC(=O)O[C@H]1[C@@H](O)C=C2C[C@@]3(O)OC[C@@]4(C)O[C@]43C[C@]2(C)[C@H]1C [compound 2, fureremophilane B]	123
